Laboratory results reported in PubChem BioAssay (NCI).
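Dose response: 5 concentrations. Exposure: 48 h. Format: 96-well plates. Endpoint: linear interpolation; highest concentration if not reached. TGI: concentration producing complete growth inhibition.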

Columns and labels:
Assay in all cases: NCI anticancer screen, dose series, 48 h
SNB-75 CNS = tested on: SNB-75 CNS
HOP-62 NSCLC = tested on: HOP-62 NSCLC
T-47D breast = tested on: T-47D breast
U251 CNS = tested on: U251 CNS
PC-3 prostate = tested on: PC-3 prostate
OVCAR-3 ovarian = tested on: OVCAR-3 ovarian
RXF 393 renal = tested on: RXF 393 renal
SK-OV-3 ovarian = tested on: SK-OV-3 ovarian
K-562 leukemia = tested on: K-562 leukemia
OVCAR-5 ovarian = tested on: OVCAR-5 ovarian
HCT-15 colon = tested on: HCT-15 colon
SF-539 CNS = tested on: SF-539 CNS
OVCAR-8 ovarian = tested on: OVCAR-8 ovarian
HOP-92 NSCLC = tested on: HOP-92 NSCLC
LOX IMVI melanoma = tested on: LOX IMVI melanoma
RPMI-8226 leukemia = tested on: RPMI-8226 leukemia
SF-295 CNS = tested on: SF-295 CNS
A498 renal = tested on: A498 renal
MOLT-4 leukemia = tested on: MOLT-4 leukemia
SNB-19 CNS = tested on: SNB-19 CNS

Cc1c(-c2ccccc2)c(C#N)c2nnn(-c3cccc(Cl)c3)c(=O)n12
TGI (SNB-75 CNS): > 100 µM
TGI (HOP-62 NSCLC): > 100 µM
TGI (T-47D breast): > 100 µM
TGI (U251 CNS): > 100 µM
TGI (PC-3 prostate): 75.9 µM
TGI (OVCAR-3 ovarian): > 100 µM
TGI (RXF 393 renal): > 100 µM
TGI (SK-OV-3 ovarian): > 100 µM
TGI (K-562 leukemia): > 100 µM
TGI (OVCAR-5 ovarian): > 100 µM
TGI (HCT-15 colon): > 100 µM
TGI (SF-539 CNS): > 100 µM
TGI (OVCAR-8 ovarian): > 100 µM
TGI (HOP-92 NSCLC): > 100 µM
TGI (LOX IMVI melanoma): > 100 µM
TGI (RPMI-8226 leukemia): > 100 µM
TGI (SF-295 CNS): > 100 µM
TGI (A498 renal): 98.5 µM

Cc1cc(C)n(C(=O)CSc2nnc(SCC(=O)n3nc(C)cc3C)s2)n1
TGI (MOLT-4 leukemia): > 100 µM
TGI (SNB-75 CNS): > 100 µM
TGI (HOP-62 NSCLC): > 100 µM
TGI (T-47D breast): > 100 µM
TGI (U251 CNS): > 100 µM
TGI (PC-3 prostate): > 100 µM
TGI (OVCAR-3 ovarian): > 100 µM
TGI (RXF 393 renal): > 100 µM
TGI (SK-OV-3 ovarian): > 100 µM
TGI (K-562 leukemia): > 100 µM
TGI (OVCAR-5 ovarian): > 100 µM
TGI (HCT-15 colon): > 100 µM
TGI (SF-539 CNS): > 100 µM
TGI (SNB-19 CNS): > 100 µM
TGI (OVCAR-8 ovarian): > 100 µM
TGI (HOP-92 NSCLC): > 100 µM
TGI (LOX IMVI melanoma): > 100 µM
TGI (RPMI-8226 leukemia): > 100 µM
TGI (SF-295 CNS): > 100 µM
TGI (A498 renal): > 100 µM

O=c1[nH]c(=O)n(C/C=C/CBr)nc1Br
TGI (MOLT-4 leukemia): 43.3 µM
TGI (SNB-75 CNS): 24.3 µM
TGI (HOP-62 NSCLC): 37.9 µM
TGI (T-47D breast): 28.2 µM
TGI (U251 CNS): 21.8 µM
TGI (PC-3 prostate): 24.6 µM
TGI (OVCAR-3 ovarian): 23.9 µM
TGI (RXF 393 renal): 25.4 µM
TGI (K-562 leukemia): 47.7 µM
TGI (OVCAR-5 ovarian): 31.1 µM
TGI (HCT-15 colon): 27.9 µM
TGI (SF-539 CNS): 27.7 µM
TGI (SNB-19 CNS): 28.1 µM
TGI (OVCAR-8 ovarian): 29.9 µM
TGI (HOP-92 NSCLC): 26.5 µM
TGI (LOX IMVI melanoma): 5.78 µM
TGI (RPMI-8226 leukemia): 23.3 µM
TGI (SF-295 CNS): 31.1 µM
TGI (A498 renal): 26.3 µM

O=C(N/N=C(/COc1cccc(Cl)c1)N=Cc1cccnc1)c1ccncc1
TGI (MOLT-4 leukemia): > 100 µM
TGI (SNB-75 CNS): > 100 µM
TGI (HOP-62 NSCLC): > 100 µM
TGI (T-47D breast): > 100 µM
TGI (U251 CNS): > 100 µM
TGI (PC-3 prostate): > 100 µM
TGI (OVCAR-3 ovarian): > 100 µM
TGI (RXF 393 renal): > 100 µM
TGI (SK-OV-3 ovarian): > 100 µM
TGI (K-562 leukemia): > 100 µM
TGI (OVCAR-5 ovarian): > 100 µM
TGI (HCT-15 colon): > 100 µM
TGI (SF-539 CNS): > 100 µM
TGI (SNB-19 CNS): > 100 µM
TGI (OVCAR-8 ovarian): > 100 µM
TGI (HOP-92 NSCLC): 89.7 µM
TGI (LOX IMVI melanoma): > 100 µM
TGI (RPMI-8226 leukemia): > 100 µM
TGI (SF-295 CNS): > 100 µM
TGI (A498 renal): > 100 µM

COc1ccc2nc3n(c2c1)C(c1c(Cl)cccc1Cl)SC3 (centres undefined)
TGI (MOLT-4 leukemia): > 100 µM
TGI (SNB-75 CNS): > 100 µM
TGI (HOP-62 NSCLC): > 100 µM
TGI (T-47D breast): > 100 µM
TGI (U251 CNS): > 100 µM
TGI (PC-3 prostate): > 100 µM
TGI (OVCAR-3 ovarian): > 100 µM
TGI (RXF 393 renal): > 100 µM
TGI (SK-OV-3 ovarian): > 100 µM
TGI (K-562 leukemia): > 100 µM
TGI (OVCAR-5 ovarian): > 100 µM
TGI (HCT-15 colon): > 100 µM
TGI (SNB-19 CNS): > 100 µM
TGI (OVCAR-8 ovarian): > 100 µM
TGI (HOP-92 NSCLC): > 100 µM
TGI (LOX IMVI melanoma): > 100 µM
TGI (RPMI-8226 leukemia): > 100 µM
TGI (SF-295 CNS): > 100 µM
TGI (A498 renal): > 100 µM

O=S(=O)(OI(O)CC(F)(F)F)C(F)(F)F
TGI (MOLT-4 leukemia): > 100 µM
TGI (SNB-75 CNS): > 100 µM
TGI (HOP-62 NSCLC): > 100 µM
TGI (T-47D breast): > 100 µM
TGI (U251 CNS): > 100 µM
TGI (PC-3 prostate): > 100 µM
TGI (OVCAR-3 ovarian): > 100 µM
TGI (RXF 393 renal): > 100 µM
TGI (SK-OV-3 ovarian): > 100 µM
TGI (K-562 leukemia): > 100 µM
TGI (OVCAR-5 ovarian): > 100 µM
TGI (HCT-15 colon): > 100 µM
TGI (SF-539 CNS): > 100 µM
TGI (OVCAR-8 ovarian): > 100 µM
TGI (HOP-92 NSCLC): > 100 µM
TGI (LOX IMVI melanoma): > 100 µM
TGI (RPMI-8226 leukemia): > 100 µM
TGI (SF-295 CNS): > 100 µM
TGI (A498 renal): > 100 µM

COC(=O)[C@@H]1Cc2cc(O)c(O)cc2C2(CCN(C)CC2)O1
TGI (MOLT-4 leukemia): > 10 µM
TGI (SNB-75 CNS): > 10 µM
TGI (HOP-62 NSCLC): > 10 µM
TGI (T-47D breast): > 10 µM
TGI (U251 CNS): > 10 µM
TGI (PC-3 prostate): > 10 µM
TGI (OVCAR-3 ovarian): > 10 µM
TGI (RXF 393 renal): > 10 µM
TGI (SK-OV-3 ovarian): > 10 µM
TGI (OVCAR-5 ovarian): > 10 µM
TGI (HCT-15 colon): > 10 µM
TGI (SF-539 CNS): > 10 µM
TGI (SNB-19 CNS): > 10 µM
TGI (OVCAR-8 ovarian): > 10 µM
TGI (HOP-92 NSCLC): > 10 µM
TGI (LOX IMVI melanoma): > 10 µM
TGI (RPMI-8226 leukemia): > 10 µM
TGI (SF-295 CNS): > 10 µM
TGI (A498 renal): > 10 µM

N#CCCN(CCC#N)c1ccc(C(N=Nc2ccc(Cl)cc2)=Nc2ccc(F)cc2)cc1
TGI (MOLT-4 leukemia): > 100 µM
TGI (SNB-75 CNS): > 100 µM
TGI (HOP-62 NSCLC): > 100 µM
TGI (T-47D breast): > 100 µM
TGI (U251 CNS): > 100 µM
TGI (PC-3 prostate): > 100 µM
TGI (OVCAR-3 ovarian): > 100 µM
TGI (RXF 393 renal): > 100 µM
TGI (SK-OV-3 ovarian): > 100 µM
TGI (K-562 leukemia): > 100 µM
TGI (OVCAR-5 ovarian): > 100 µM
TGI (HCT-15 colon): > 100 µM
TGI (SF-539 CNS): > 100 µM
TGI (SNB-19 CNS): > 100 µM
TGI (OVCAR-8 ovarian): > 100 µM
TGI (HOP-92 NSCLC): > 100 µM
TGI (RPMI-8226 leukemia): > 100 µM
TGI (SF-295 CNS): > 100 µM
TGI (A498 renal): > 100 µM

O=[N+]([O-])c1nccn1CCCNCCCn1ccnc1[N+](=O)[O-]
TGI (MOLT-4 leukemia): > 100 µM
TGI (SNB-75 CNS): > 100 µM
TGI (HOP-62 NSCLC): > 100 µM
TGI (T-47D breast): > 100 µM
TGI (U251 CNS): > 100 µM
TGI (PC-3 prostate): > 100 µM
TGI (OVCAR-3 ovarian): > 100 µM
TGI (RXF 393 renal): > 100 µM
TGI (SK-OV-3 ovarian): > 100 µM
TGI (K-562 leukemia): > 100 µM
TGI (OVCAR-5 ovarian): > 100 µM
TGI (HCT-15 colon): > 100 µM
TGI (SF-539 CNS): > 100 µM
TGI (OVCAR-8 ovarian): > 100 µM
TGI (HOP-92 NSCLC): > 100 µM
TGI (LOX IMVI melanoma): > 100 µM
TGI (RPMI-8226 leukemia): > 100 µM
TGI (SF-295 CNS): > 100 µM
TGI (A498 renal): > 100 µM

Nc1ccccc1N=Nc1c(S(=O)(=O)O)cc2cc(S(=O)(=O)O)cc(O)c2c1O
TGI (MOLT-4 leukemia): > 100 µM
TGI (SNB-75 CNS): > 100 µM
TGI (HOP-62 NSCLC): > 100 µM
TGI (T-47D breast): > 100 µM
TGI (U251 CNS): > 100 µM
TGI (PC-3 prostate): > 100 µM
TGI (OVCAR-3 ovarian): > 100 µM
TGI (RXF 393 renal): > 100 µM
TGI (SK-OV-3 ovarian): > 100 µM
TGI (K-562 leukemia): > 100 µM
TGI (OVCAR-5 ovarian): > 100 µM
TGI (HCT-15 colon): > 100 µM
TGI (SNB-19 CNS): > 100 µM
TGI (OVCAR-8 ovarian): > 100 µM
TGI (HOP-92 NSCLC): > 100 µM
TGI (LOX IMVI melanoma): > 100 µM
TGI (RPMI-8226 leukemia): > 100 µM
TGI (SF-295 CNS): > 100 µM
TGI (A498 renal): > 100 µM

COC(=O)C1C(C(=O)OC)C1(Br)CBr (centres undefined)
TGI (MOLT-4 leukemia): 21 µM
TGI (SNB-75 CNS): > 100 µM
TGI (HOP-62 NSCLC): > 100 µM
TGI (T-47D breast): 50.4 µM
TGI (U251 CNS): > 100 µM
TGI (PC-3 prostate): > 100 µM
TGI (OVCAR-3 ovarian): > 100 µM
TGI (RXF 393 renal): 41.6 µM
TGI (SK-OV-3 ovarian): > 100 µM
TGI (OVCAR-5 ovarian): > 100 µM
TGI (HCT-15 colon): 38.7 µM
TGI (SF-539 CNS): > 100 µM
TGI (SNB-19 CNS): > 100 µM
TGI (OVCAR-8 ovarian): > 100 µM
TGI (HOP-92 NSCLC): 54.9 µM
TGI (LOX IMVI melanoma): 51.5 µM
TGI (RPMI-8226 leukemia): 44.3 µM
TGI (SF-295 CNS): > 100 µM
TGI (A498 renal): > 100 µM

CC(Oc1ccccc1Cl)C(=O)NN1C(=O)CSC1c1ccc(Cl)cc1 (centres undefined)
TGI (SNB-75 CNS): 45.4 µM
TGI (HOP-62 NSCLC): 36.4 µM
TGI (T-47D breast): 52.1 µM
TGI (U251 CNS): 31.6 µM
TGI (PC-3 prostate): 38.2 µM
TGI (OVCAR-3 ovarian): 61.9 µM
TGI (RXF 393 renal): 33.4 µM
TGI (SK-OV-3 ovarian): 39.7 µM
TGI (K-562 leukemia): 30.6 µM
TGI (OVCAR-5 ovarian): 48 µM
TGI (HCT-15 colon): 43.8 µM
TGI (SF-539 CNS): 65.3 µM
TGI (SNB-19 CNS): 50.2 µM
TGI (OVCAR-8 ovarian): 56.5 µM
TGI (HOP-92 NSCLC): 40.7 µM
TGI (LOX IMVI melanoma): 39 µM
TGI (RPMI-8226 leukemia): 38.4 µM
TGI (SF-295 CNS): 37.8 µM
TGI (A498 renal): 34.8 µM
